Test system: H358-SOS2 KO cells
Assay: H358-SOS2 KO cell proliferation inhibition (CellTiter-Glo, 3D methylcellulose)
Type: cell-based
Settings: 192 h, 8 days, CTG
Procedure: The effect of the compounds of the present invention on the proliferation of H358 cells with knockout of SOS2 (H358-SOS2 KO, Kyinno Biotechnology Co., Ltd.) was assessed by CellTiter-Glo luminescent cell viability assay kit method. The H358-SOS2 KO cell strain was cultured in complete medium at 37 °C with 5% CO2. A sterilized 1% methylcellulose 3D medium was prepared in advance. Cells in the logarithmic growth phase were harvested and counted using a […]. The cell viability was determined by the trypan blue exclusion method, and the cell viability was kept 90% or more. The cell concentration was adjusted. The cells were uniformly mixed and left to stand. After no visible gas exists in the cell suspension, 180 µL of the cell suspension was added into a 96-well plate at 180 µL/well, and the total number of cells was 2000. The cells in the 96-well plate were incubated at 37 °C with 5% CO2. A diluted test compound was added to each well using a multi-channel pipette. […] The cell plate was placed at room temperature for 20 min to stabilize the luminescence signal. The luminescence value was read, and the data were collected. The data were analyzed using the GraphPad Prism 7.0 software. Dose-response curves were fit to the data using nonlinear S-curve regression, and the IC50 value was calculated from the curves.

`[2H][C@](C)(Nc1nc(C)nc2c(N3CCOCC3)c(=O)n(C3(CF)CC3)cc12)c1cccc(C(F)F)c1F` [Example 55, (R)-4-((1-(3-(difluoromethyl)-2-fluorophenyl)ethyl-1-d)amino)-6-(1-(fluoromethyl)cyclopropyl)-2-methyl-8-morpholinylpyrido[4,3-d]pyrimidine-7(6H)-one] gave an IC50 of 79 nM.
